# Results reported in the OPERA property sets (Mansouri et al. 2018).
# Settings: for log10 biotransformation half-life (days) / log10 BCF: fish
Compound,boiling point [°C],melting point [°C],also measured
CCCCCCCCCCCCCCCCCCCCCCCCCCCCCCCCCCCCCCCCCCCC,548,87.5,ready biodegradability: readily biodegradable
COc1cccc2c1C(=O)c1c(O)c3c(c(O)c1C2=O)C[C@@](O)(C(C)=O)C[C@@H]3O[C@H]1C[C@H](N)[C@H](O)[C@H](C)O1,,208,
O[Si](c1ccccc1)(c1ccccc1)c1ccccc1,,155,log10 biotransformation half-life (days): 0.07
FC(F)(F)Oc1ccccc1,102,-50,
CCF,-37.6,-143,log10 vapour pressure (mmHg): 3.84
COc1ccc(CC(=O)O)cc1,,87,
CCCCCCCCCc1ccc(O)cc1,,42,log10 Koc (L/kg): 3.84; log10 vapour pressure (mmHg): -3.09; log10 BCF: 2.58; log10 biotransformation half-life (days): -0.23
CC(C)c1cc(C(C)C)cc(C(C)C)c1,238,-7.4,
NC(=O)Nc1ccccc1Cl,,,log10 Koc (L/kg): 1.61
CC(C)(C)C,9.5,-16.4,log10 vapour pressure (mmHg): 3.11
CC(C)c1ccccc1C(=O)O,,,log10 vapour pressure (mmHg): -3.46
CC(C)C(O)C(C)(C)C (stereo not given),150,-13,
O=Cc1c(F)c(F)cc(F)c1F,178,,
CC(C)=CCCC(C)O (stereo not given),175,,
Fc1ccccc1C1=NCC(=S)N(CC(F)(F)F)c2ccc(Cl)cc21,,138,
O=C1c2ccccc2C(=O)c2cc(Br)ccc21,,206,
COC(=O)c1cccc(O)c1,281,73,
CCCCCCCC/C=C\CCCCCCCCOC(=O)CCCCC(=O)OCCCCCCCC/C=C\CCCCCCCC,,,ready biodegradability: readily biodegradable
COc1ccc2c(c1)c(CC(=O)O)c(C)n2C(=O)c1ccc(Cl)cc1,,158,
C=Cc1ccc2ccccc2c1,,66,
Cc1ccc(N)cc1C,228,51,log10 Henry constant (atm·m³/mol): -5.73; log10 vapour pressure (mmHg): -1.55; ready biodegradability: readily biodegradable; log10 BCF: 0.95; log10 biotransformation half-life (days): -0.99

Compound,boiling point [°C],melting point [°C],also measured
Cc1cc(C)c(O)c(C(=O)CC2CC(=O)NC(=O)C2)c1,,201,
OCCBr,150,,
c1ccc2sncc2c1,220,38,
Clc1ccc(-c2cccc(Cl)c2Cl)cc1Cl,,,log10 biotransformation half-life (days): 2.47
Cc1c(F)cccc1Cl,154,,
CN(C)C(=O)Nc1ccc(Cl)c(Cl)c1,,158,log10 Koc (L/kg): 2.4; log10 vapour pressure (mmHg): -7.16; ready biodegradability: not readily biodegradable; log10 BCF: 1.15; log10 biotransformation half-life (days): -1.45
OCC1CCCCC1,183,-43,
COCC(O)COC,169,,
C=C(C)c1ccc(O)cc1,,,ready biodegradability: not readily biodegradable
CC(C)C1CCC(C(C)C)CC1 (stereo not given),,,log10 biotransformation half-life (days): 0.97
COC(=O)c1cc(Cl)ccc1N,,67,
Clc1cccc2c(Cl)cccc12,,107,log10 Koa: 6.65
ClCCOc1ccccc1,218,28,
CCCCCCCCCCCCCC(O)CC (stereo not given),,50,
CC#C[C@]1(O)CC[C@H]2[C@@H]3C[C@H](C)C4=CC(=O)CC[C@]4(C)[C@H]3CC[C@@]21C,,102,
Nc1ccc(Cl)c(Cl)c1Cl,292,73,log10 Koc (L/kg): 2.6; log10 BCF: 2; log10 biotransformation half-life (days): -0.27
CCOCOCC,88,-66.5,log10 vapour pressure (mmHg): 1.53
OCC(F)(F)C(F)(F)C(F)(F)F,95,,log10 vapour pressure (mmHg): 1.52
CCC(C)=NO,152,-29.5,ready biodegradability: not readily biodegradable; log10 BCF: 0.7; log10 biotransformation half-life (days): -1.33
COC(=O)C1(O)c2ccccc2-c2ccc(Cl)cc21 (stereo not given),,139,
CCCCCCCCCCCC(N)=O,,110,

Compound,boiling point [°C],melting point [°C],also measured
O=[N+]([O-])c1ccc(Nc2ccccc2)cc1,,135,
Cl.NCCc1ccc(O)c(O)c1,,249,
C=CCc1ccccc1,156,-40,
CC(=O)Oc1ccccc1,196,-30,log10 vapour pressure (mmHg): -0.4
CCCC(C)(C)C(C)(C)C,160,-54,log10 vapour pressure (mmHg): 0.589
c1ccc(CC2CCCCN2)cc1 (stereo not given),268,32,
Nc1cccnc1,252,64.5,ready biodegradability: not readily biodegradable; log10 BCF: 0.32
CCc1ccc2ccc3cccc4ccc1c2c34,,,log10 biotransformation half-life (days): 0.24
C=Cc1cccc(Cl)c1,,,log10 vapour pressure (mmHg): -0.0083; ready biodegradability: not readily biodegradable
CC(C)C(=O)C(C)C,125,-69,log10 vapour pressure (mmHg): 1.13
C=C(C=O)CC,92.5,,
OC[C@H]1O[C@H]1c1ccccc1,,26.5,
CCCCSP(=O)(SCCCC)SCCCC,,,log10 Henry constant (atm·m³/mol): -6.53; log10 Koc (L/kg): 3.7; log10 vapour pressure (mmHg): -5.28; ready biodegradability: readily biodegradable
O=Nc1ccccc1,,68.5,
c1ccc(-c2coc(-c3ccccc3)n2)cc1,339,103,
CCCCCC(CO)CCC (stereo not given),218,,
CCCN(C(C)=O)c1ccccc1,268,49,
CCOc1cc(Cl)c(N)c(Cl)c1,275,46,
CC(C)OC(=O)[C@@H](C)N(C(=O)c1ccccc1)c1ccc(F)c(Cl)c1,,,log10 vapour pressure (mmHg): -6.2
CC#CC,26.9,-32.3,log10 vapour pressure (mmHg): 2.85; ready biodegradability: not readily biodegradable
CC(C)(Oc1ccc(Cl)cc1)C(=O)OCCOC(=O)c1cccnc1,,100,
